Tests used:
[1] = test system: cisplatin-induced emesis; test: Cisplatin-induced emesis in dogs (antiemetic); assay type: in vivo, dog; conditions: for inhibition in vivo at 1 mg/kg: Canis lupus familiaris, iv, 5 h, read-out: % inhibition of cisplatin-induced emesis
Protocol: The procedure used to test compounds of the present invention for antiemetic properties is a modification of the method of Gylys et al, Res. Commun, Chem. Pathol. Pharm., 23, 61(1979).
Adult, mongrel, unfasted dogs of both sexes were randomly assigned into treatment groups, with each treatment group consisting of four dogs. On the dosing day all dogs were given cisplatin, 3.0 mg/kg, intravenously. Sixty minutes later, the dogs in the control treatment group were given deionized water, 0.1 ml/kg intravenously. The dogs in the test group were given a test compound at an appropriate dose intravenously. All doses were administered as a solution by means of a syringe and needle, and each dog's emetic episodes were recorded for 5 hours after the administration of cisplatin.

[2] = test system: emesis; conditions: reported by Mikhlina et al, Khim-Farmastsevt. Zh. 10 (1976); cited from earlier work
[3] = test system: dopamine D2 -receptor; conditions: reported in USSR Pat. No. SU-414-261; cited from earlier work
[4] = test system: gastric emptying; test: Gastric emptying of a test meal in fasted rats; assay type: in vivo; conditions: fasted rat, 9.0 mg/kg IP 30 min before test meal; measured 60 min after the meal
Protocol: The procedure used to test compounds of the present invention for gastric motility enhancing activity was that of Droppleman et al, J. Pharmacol. Methods, 4, 227(1980). Each animal was dosed intraperitoneally (9.0 mg/kg) with a test compound or control. After 30 minutes each animal was given 3 ml of a methylcellulose-based test meal formulation. Sixty minutes after administration of the test meal, each animal was killed by cervical dislocation, and the stomach was removed and weighed. The stomach was cut open, rinsed and dried, and reweighed. The difference between the full and empty weights (amount of meal remaining in stomach) was subtracted from the original test meal weight to determine the meal amount emptied from the stomach during the test period.

[5] = test system: 5-HT (serotonin)-induced contractions of the guinea pig ileum; test: Blockade of serotonin-induced contractions of guinea pig ileum (5-HT antagonist activity); assay type: cell-based; conditions: 10^-6 M serotonin
[6] = test system: exploratory light/dark behavior; test: Anxiolytic model, two-compartment exploratory light/dark test in mice; assay type: in vivo; conditions: mouse, 10 mg/kg IP, 5 minute period; vehicle control 29
Description: The method has been described by Young and Johnson, Soc. Neurosci. Abs., 1988, 14, 207 and is a modification of the procedures described by Costall and Naylor, Brit. J. Pharmacol. 1988, 93, 985-993; and Crawley, Pharmacol. Biochem. and Behav. 1981, 15, 695-699. A two compartment light-dark activity monitoring device (Digiscan Model RXWZCM16, Omnitech Electronics,Inc., Columbus, Ohio) is used. A 90W light source located 30 cm above the box provides light to the apparatus. Behavioral testing was conducted in a sound attenuated, darkened room illuminated with a red light (25W red bulb) only.
Each animal (mouse) received a dose of either the test, reference, or control article. The mouse was placed at the center of the illuminated area and its behavioral activity tallied over a 5 minute period by use of a Digiscan analyzer. Behavioral variables recorded include: the time spent in the lit and dark areas, the number of rearings in the lit and dark areas, the number of locomotor activity counts in the lit and dark areas, the number of transitions between the lit and dark or dark and lit areas, rearing time in the lit and dark areas, the latency to make the first transition from the lit to the dark areas, locomotor time in the lit and dark areas, and resting time in the lit and dark areas. Appropriate statistical analyses for each measure were performed. […]

| Compound | inhibition in vivo at 1 mg/kg [1] [%] | further results |
| --- | --- | --- |
| 2-(1-Piperidinylmethyl)-1-azabicyclo[2.2.2]oct-3-yl 1-methyl-1H-indole-3-carboxylate cis isomer [XIII (cis isomer)] |  | % inhibition of cisplatin-induced emesis ([1]; dog, 1.0 mg/kg IV given 60 min after cisplatin 3.0 mg/kg IV, emetic episodes recorded for 5 hours): 34% |
| COc1ccc(S(N)(=O)=O)cc1C(=O)NC1CN2CCC1CC2 (stereo not drawn) [5-aminosulfonyl-N-(1-azabicyclo-[2.2.2]oct-3-yl)-2-methoxybenzamide] |  | anti-emetic activity [2]: not to have anti-emetic activity; neuroleptic activity [3]: neuroleptic activity |
| COc1cc(N)c(Cl)cc1C(=O)NC1C2CCN(CC2)C1CN(C)C (stereo not drawn) [Example I, 4-Amino-5-chloro-N-[2-[(dimethylamino)methyl]-1-azabicyclo[2.2.2]oct-3-yl]-2-methoxy-benzamide] | 96 | % change in meal emptied [4]: +36% |
| COc1cc(N)c(Cl)cc1C(=O)NC1C2CCN(CC2)C1CN1CCCCC1 (stereo not drawn) [Example IV, 4-Amino-5-chloro-2-methoxy-N-[2-(1-piperidinylmethyl)-1-azabicyclo[2.2.2]oct-3-yl]benzamide] | 94 | pA2 against serotonin-induced contractions [5]: 6.6 |
| CNc1cc(OC)c(C(=O)NC2C3CCN(CC3)C2CN2CCCCC2)cc1Cl (stereo not drawn) [Example V, 5-Chloro-2-methoxy-4-(methylamino)-N-[2-(1-piperidinylmethyl)-1-azabicyclo[2.2.2]oct-3-yl]benzamide] | 99 | % Time Spent In Lit Area [6]: 51% |
| CSCCOc1cc(N)c(Cl)cc1C(=O)NC1C2CCN(CC2)C1CN(C)C (stereo not drawn) [II, 4-Amino-5-chloro-N-[2-[(dimethylamino)methyl]-1-azabicyclo[2.2.2]oct-3-yl]-2-[2-(methylthio)ethoxy]benzamide] | 47 |  |
| CNc1cc(OC)c(C(=O)NC2C3CCN(CC3)C2CN(C)C)cc1Cl (stereo not drawn) [III, 5-Chloro-N-[2-[(dimethylamino)methyl]-1-azabicyclo[2.2.2]oct-3-yl]-2-methoxy-4-(methylamino)benzamide] | 73 |  |
| COc1cc(N)c(Cl)cc1C(=O)NC1C2CCN(CC2)C1CN1CCCC1 (stereo not drawn) [VI, 4-Amino-5-chloro-2-methoxy-N-[2-(1-pyrrolidinylmethyl)-1-azabicyclo[2.2.2]oct-3-yl]benzamide] | 87 | % change in meal emptied [4]: +33% |
| CNc1cc(OC)c(C(=O)NC2C3CCN(CC3)C2CN2CCCC2)cc1Cl (stereo not drawn) [VII, 5-Chloro-2-methoxy-4-(methylamino)-N-[2-(1-pyrrolidinylmethyl)-1-azabicyclo[2.2.2]oct-3-yl]benzamide] | 87 |  |
| COc1cc(N)c(Cl)cc1C(=O)NC1C2CCN(CC2)C1CN1CCOCC1 (stereo not drawn) [XI, 4-Amino-5-chloro-2-methoxy-N-[2-(4-morpholinylmethyl)-1-azabicyclo[2.2.2]oct-3-yl]benzamide] | 21 |  |

Reference: patent US5273972A, “[(2-diakylaminomethyl)-3-quinuclidinyl]-benzamides and benzoates” (priority 1992, dated 1993)
